Source: US8217035B2, “Pyrimidine derivatives used as PI-3-kinase inhibitors” (Novartis AG, priority 2006, dated 2012)
Where two headings read alike, the source gives them in different places.

Key:
[1] = target: PI3 kinase alpha (Homo sapiens, UniProt P42336); experiment: PI3K ATP depletion assay (Biological Method 1, Assay 3; KinaseGlo luminescence); format: biochemical; conditions: ATP depletion assay, read-out: PI3 Kinase Alpha, IC50
Procedure: The PI3 kinase alpha IC50 values shown in Table 1 were determined according to the ATP depletion assay as disclosed herein in Biological Method 1.
Assay 3: ATP Depletion Assay
Compounds to be tested are dissolved in DMSO and directly distributed into a black 384-well plate at 1.25 μL per well. To start the reaction, 25 μL of 10 nM PI3 kinase and 5 μg/mL 1-alpha-phosphatidylinositol (PI) are added into each well followed by 25 μL of 2 μM ATP. The reaction is performed until approx 50% of the ATP is depleted, and then stopped by the addition of 25 μL of KinaseGlo solution purchased from Promega. The stopped reaction is incubated for 5 minutes and the remaining ATP is then detected via luminescence.

[2] = tested on: A2780 ovarian cancer cells; experiment: Cellular proliferation in A2780 cells, Cell Titer Glo (Biological Method 4); format: cell-based; conditions: Homo sapiens
Procedure: In addition, many of the compounds of Table 1 were tested to determine their inhibitory activity in a cellular proliferation assay according to Biological Method 4.
The ability of the compounds of the invention to inhibit cellular proliferation were determined by using Cell Titer Glo, a commercially available assay from Promega Corporation. A2780 ovarian cancer cells were seeded in TC treated 96-well plates at a density of 1,000 per well in DMEM, 10% FBS, 1% Sodium Pyruvate, and 1% Penicillin Streptomycin for a minimum of 2 hrs prior to addition of compound. For each concentration of test compound, 2 μl (500×) aliquots of compound or 100% DMSO diluted in 500 μl of culture medium for 2× concentration then diluted 1× on the Cells. Cells were incubated for 72 hrs at 37° C., 5% CO2. After the 72 hour incubation, Cell Titer Glo reagent is added to determine number of viable cells remaining after exposure to the compound, and the EC50 value was calculated. The assay was performed according to the manufacturer's instruction (Promega Corporation, Madison, Wis. USA). Each experimental condition was performed in duplicate.

[3] = ovarian cancer cell line A2780, Biological Method 4

Chain of PI3 kinase alpha (P42336 whole entry): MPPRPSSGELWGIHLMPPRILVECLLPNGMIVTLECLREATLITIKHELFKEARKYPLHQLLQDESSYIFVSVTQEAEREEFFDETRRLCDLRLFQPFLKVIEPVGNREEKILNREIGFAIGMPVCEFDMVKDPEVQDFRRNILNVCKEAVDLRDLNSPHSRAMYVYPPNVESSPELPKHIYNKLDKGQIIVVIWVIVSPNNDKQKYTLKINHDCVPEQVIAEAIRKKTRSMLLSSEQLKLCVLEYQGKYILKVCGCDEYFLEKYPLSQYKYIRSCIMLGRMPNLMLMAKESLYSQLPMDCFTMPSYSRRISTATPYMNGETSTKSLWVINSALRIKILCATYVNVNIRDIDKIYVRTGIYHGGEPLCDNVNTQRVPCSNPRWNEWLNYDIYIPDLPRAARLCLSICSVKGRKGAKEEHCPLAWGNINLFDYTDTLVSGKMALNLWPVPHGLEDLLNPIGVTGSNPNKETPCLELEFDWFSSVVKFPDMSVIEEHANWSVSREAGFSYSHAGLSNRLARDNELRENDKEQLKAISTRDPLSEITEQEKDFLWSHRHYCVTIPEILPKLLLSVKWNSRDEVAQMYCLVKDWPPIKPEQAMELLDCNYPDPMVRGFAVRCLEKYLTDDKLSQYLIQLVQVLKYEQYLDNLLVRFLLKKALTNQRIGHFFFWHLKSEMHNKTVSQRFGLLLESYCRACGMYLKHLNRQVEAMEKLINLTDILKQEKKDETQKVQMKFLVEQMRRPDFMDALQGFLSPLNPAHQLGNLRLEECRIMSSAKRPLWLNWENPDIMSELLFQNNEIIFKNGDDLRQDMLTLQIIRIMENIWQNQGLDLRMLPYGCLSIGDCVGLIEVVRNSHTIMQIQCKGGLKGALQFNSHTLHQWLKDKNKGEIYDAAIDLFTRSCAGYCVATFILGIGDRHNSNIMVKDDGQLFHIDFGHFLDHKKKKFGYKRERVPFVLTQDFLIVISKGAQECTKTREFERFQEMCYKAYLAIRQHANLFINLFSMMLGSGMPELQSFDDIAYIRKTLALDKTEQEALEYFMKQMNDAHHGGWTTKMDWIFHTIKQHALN
Chain of PI3 kinase alpha (P27986 whole entry partner): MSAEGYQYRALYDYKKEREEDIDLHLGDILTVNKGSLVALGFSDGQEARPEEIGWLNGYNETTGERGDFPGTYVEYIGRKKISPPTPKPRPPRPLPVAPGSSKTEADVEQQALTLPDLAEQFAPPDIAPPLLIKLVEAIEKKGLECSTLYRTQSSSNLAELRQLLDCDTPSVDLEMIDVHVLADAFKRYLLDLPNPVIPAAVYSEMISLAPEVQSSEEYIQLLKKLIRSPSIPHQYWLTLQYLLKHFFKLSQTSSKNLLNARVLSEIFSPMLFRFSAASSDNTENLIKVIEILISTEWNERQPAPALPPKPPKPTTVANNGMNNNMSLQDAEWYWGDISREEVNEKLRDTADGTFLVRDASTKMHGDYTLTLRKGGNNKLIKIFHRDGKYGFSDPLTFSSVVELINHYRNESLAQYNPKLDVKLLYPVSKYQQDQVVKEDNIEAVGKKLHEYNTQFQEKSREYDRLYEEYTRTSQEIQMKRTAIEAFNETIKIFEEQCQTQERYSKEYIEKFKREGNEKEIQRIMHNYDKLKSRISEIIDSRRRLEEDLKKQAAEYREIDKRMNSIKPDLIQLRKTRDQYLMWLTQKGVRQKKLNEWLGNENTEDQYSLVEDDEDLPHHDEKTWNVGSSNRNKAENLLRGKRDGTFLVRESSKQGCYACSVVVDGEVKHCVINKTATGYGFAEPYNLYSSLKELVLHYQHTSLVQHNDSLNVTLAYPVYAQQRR

Structure (SMILES)	IC50 ([1]; Biological Method 1) [µM]	IC50 [1] [µM]	other results
Nc1cc(Cl)c(-c2cc(N3CCOC(c4ccccc4)C3)nc(N3CCOCC3)n2)cn1 (stereo not shown) [Compound 342]	< 1		EC50 [2, 3]: < 10 µM
CC(C)(C)OC(=O)CNc1ccc(Nc2cc(-c3cnc(N)cc3C(F)(F)F)nc(N3CCOCC3)n2)cn1 [Compound 491]		< 1	EC50 ([2]; ovarian cancer cell line A2780): < 25 µM
CN1CCN(C(=O)c2cnc(N3CCOCC3)nc2-c2cnc(N)nc2)CC1 [Compound 428]		< 10	EC50 ([2]; ovarian cancer cell line A2780): < 25 µM
CCN(CC)C(=O)Cc1csc(Nc2cc(-c3cnc(N)cc3C(F)(F)F)nc(N3CCOCC3)n2)n1 [Compound 218]	< 1		EC50 [2, 3]: < 10 µM
Nc1cc(C(F)(F)F)c(-c2cc(Nc3ccc4c(c3)OCCO4)nc(N3CCOCC3)n2)cn1 [Compound 446]		< 1	EC50 ([2]; ovarian cancer cell line A2780): < 25 µM
Nc1ncc(-c2cc(NC3CCOCC3)nc(N3CCOCC3)n2)c(C(F)(F)F)n1 [Compound 321]	< 1		EC50 [2, 3]: < 10 µM
Nc1ccc(-c2cc(N3CCOCC3)nc(N3CCOCC3)n2)c(F)n1 [Compound 550]			EC50 ([2]; ovarian cancer cell line A2780): < 10 µM
Nc1cc(C(F)(F)F)c(-c2cc(N3CCCOCC3)nc(N3CCOCC3)n2)cn1 [Compound 221]	< 1		EC50 [2, 3]: < 10 µM
N#Cc1ccccc1Nc1cc(-c2cnc(N)nc2)nc(N2CCOCC2)n1 [Compound 449]		< 1	EC50 ([2]; ovarian cancer cell line A2780): < 10 µM
Nc1ncc(-c2cc(NC(=O)Cc3cccnc3)nc(N3CCOCC3)n2)cn1 [Compound 291]	< 1		EC50 [2, 3]: < 25 µM
CN1CCN(Cc2cncc(-c3cc(-c4ccc(N)nc4)nc(N4CCOCC4)n3)c2)CC1 [Compound 273]	< 1		EC50 [2, 3]: < 10 µM
N#Cc1cnc(Nc2cc(-c3cnc(N)nc3C(F)(F)F)nc(N3CCOCC3)n2)s1 [Compound 545]			EC50 ([2]; ovarian cancer cell line A2780): < 25 µM
Nc1ncc(-c2cc(Nc3cnc4ccccc4c3)nc(N3CCOCC3)n2)c(=O)[nH]1 [Compound 470]			EC50 ([2]; ovarian cancer cell line A2780): < 10 µM
Nc1cc(C(F)(F)F)c(-c2cc(N3CCN(c4ccccc4)C(=O)C3)nc(N3CCOCC3)n2)cn1 [Compound 416]		< 1	
Nc1ccc(-c2cc(Nc3ccccc3-n3ccnc3)nc(N3CCOCC3)n2)cn1 [Compound 355]	< 1		
CC(=O)N1CCc2cccc(Nc3cc(-c4ccc(N)nc4)nc(N4CCOCC4)n3)c21 [Compound 354]	< 1		
Nc1ccc(-c2cc(C(F)(F)F)nc(N3CCOCC3)n2)cn1 [Compound 471]		< 1	
Nc1ccc(-c2cc(Nc3cnccc3C(F)(F)F)nc(N3CCOCC3)n2)cn1 [Compound 385]	< 1		
Nc1ccc(-c2cc(NC(=O)c3cccnc3)nc(N3CCOCC3)n2)cn1 [Compound 297]	< 1		
Nc1cc(C(F)(F)F)c(-c2cc(Nc3ccc(NCC(=O)O)nc3)nc(N3CCOCC3)n2)cn1 [Compound 490]		< 1	
Nc1ccc(-c2cc(Nc3cnc4ccc(OC(F)(F)F)cc4c3)nc(N3CCOCC3)n2)cn1 [Compound 496]		< 1	
Cc1c(-c2cnc(N)nc2)nc(N2CCOCC2)nc1-c1ccccc1S(=O)(=O)NC(C)(C)C [Compound 547]		< 10	
Nc1ccc(-c2cc(N3CCOC(C(=O)O)C3)nc(N3CCOCC3)n2)cn1 (stereo not shown) [Compound 339]	< 10		
Nc1ncc(-c2nc(N3CCOCC3)ncc2C(=O)NCC2CC2)cn1 [Compound 419]		< 10	
Nc1ccc(-c2cc(Sc3nc[nH]n3)nc(N3CCOCC3)n2)cn1 [Compound 292]	< 10		
CN(C)CCNC(=O)c1cnc(N2CCOCC2)nc1-c1cnc(N)nc1 [Compound 420]		< 10	
Nc1cc(C(F)(F)F)c(-c2cc(OC3CCNCC3)nc(N3CCOCC3)n2)cn1 [Compound 459]		< 1	
Nc1ccc(-c2cc(NCCc3ccccn3)nc(N3CCOCC3)n2)cn1 [Compound 433]		< 10	
CN1CCC(Oc2ncccc2-c2cc(-c3ccc(N)nc3)nc(N3CCOCC3)n2)C1 (stereo not shown) [Compound 288]	< 10		
CN(C)CCCCNc1cc(-c2cnc(N)nc2)nc(N2CCOCC2)n1 [Compound 517]		< 10	
